Values of other authors as cited in patent US8859761B2, “Refining process of Cefamandole sodium” (Hainan Lingkang Pharmaceutical Co., Ltd., priority 2011, dated 2014).

Cn1nnnc1SCC1=C(C(=O)[O-])N2C(=O)C(NC(=O)C(OC=O)c3ccccc3)C2SC1.[Na+] [Cefamandole nafate, sodium 7-D-(2-formyloxyphenylacetamide)-3-[(1-methyl-1H-tetrazol-5-yl)thiomethyl]-3-cephem-4-carboxylate]
solubility in ethanol (ethanol): almost insoluble
solubility in water (water): dissolves well
